Experiments:
[1] = target: T1, 5-hydroxytryptamine receptor 1A (Homo sapiens) (UniProt P08908); assay: Binding affinity towards 5-hydroxytryptamine 1A receptor
T1 sequence (whole entry): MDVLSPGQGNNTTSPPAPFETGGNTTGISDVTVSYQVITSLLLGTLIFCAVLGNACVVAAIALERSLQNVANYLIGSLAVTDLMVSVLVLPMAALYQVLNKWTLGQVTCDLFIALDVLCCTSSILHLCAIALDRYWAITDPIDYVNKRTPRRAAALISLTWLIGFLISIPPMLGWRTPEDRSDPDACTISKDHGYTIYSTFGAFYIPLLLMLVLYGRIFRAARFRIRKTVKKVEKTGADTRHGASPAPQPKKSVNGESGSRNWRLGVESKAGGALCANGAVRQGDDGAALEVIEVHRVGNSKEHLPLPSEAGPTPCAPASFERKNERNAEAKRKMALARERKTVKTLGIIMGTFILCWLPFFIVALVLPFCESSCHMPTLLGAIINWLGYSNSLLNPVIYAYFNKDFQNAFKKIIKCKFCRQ

[2] = target: 5-hydroxytryptamine receptor 7 (Homo sapiens) (UniProt P34969); assay: Binding affinity towards 5-hydroxytryptamine 7 receptor
5-hydroxytryptamine receptor 7 (Homo sapiens), sequence (P34969 whole entry): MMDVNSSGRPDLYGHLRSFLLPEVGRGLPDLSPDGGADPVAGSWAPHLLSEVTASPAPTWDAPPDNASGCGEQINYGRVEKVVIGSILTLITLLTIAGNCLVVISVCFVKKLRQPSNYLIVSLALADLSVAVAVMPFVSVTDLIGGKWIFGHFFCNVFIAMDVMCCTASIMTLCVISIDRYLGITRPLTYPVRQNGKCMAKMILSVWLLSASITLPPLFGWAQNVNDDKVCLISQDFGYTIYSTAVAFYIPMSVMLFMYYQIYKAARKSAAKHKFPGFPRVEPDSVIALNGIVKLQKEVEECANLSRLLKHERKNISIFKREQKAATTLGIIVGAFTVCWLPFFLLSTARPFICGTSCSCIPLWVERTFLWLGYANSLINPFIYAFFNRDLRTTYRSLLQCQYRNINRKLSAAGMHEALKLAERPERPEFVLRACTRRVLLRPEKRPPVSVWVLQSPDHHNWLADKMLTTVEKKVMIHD

[3] = target: 5-hydroxytryptamine receptor 5A (Homo sapiens) (UniProt P47898); assay: Binding affinity towards 5-HT5a receptor
5-hydroxytryptamine receptor 5A (Homo sapiens), sequence (P47898 whole entry): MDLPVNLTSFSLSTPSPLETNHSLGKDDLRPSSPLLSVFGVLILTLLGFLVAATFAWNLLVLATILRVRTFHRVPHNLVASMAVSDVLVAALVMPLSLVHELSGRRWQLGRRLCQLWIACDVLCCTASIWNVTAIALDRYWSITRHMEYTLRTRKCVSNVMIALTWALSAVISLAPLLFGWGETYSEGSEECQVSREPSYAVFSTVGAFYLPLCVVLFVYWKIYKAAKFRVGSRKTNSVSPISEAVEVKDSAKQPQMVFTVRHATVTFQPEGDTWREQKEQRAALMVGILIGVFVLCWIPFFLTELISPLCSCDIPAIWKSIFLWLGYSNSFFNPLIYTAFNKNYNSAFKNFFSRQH

[4] = target: 5-hydroxytryptamine receptor 6 (Homo sapiens) (UniProt P50406); assay: Binding affinity towards human 5-hydroxytryptamine 6 receptor
5-hydroxytryptamine receptor 6 (Homo sapiens), sequence (P50406 whole entry): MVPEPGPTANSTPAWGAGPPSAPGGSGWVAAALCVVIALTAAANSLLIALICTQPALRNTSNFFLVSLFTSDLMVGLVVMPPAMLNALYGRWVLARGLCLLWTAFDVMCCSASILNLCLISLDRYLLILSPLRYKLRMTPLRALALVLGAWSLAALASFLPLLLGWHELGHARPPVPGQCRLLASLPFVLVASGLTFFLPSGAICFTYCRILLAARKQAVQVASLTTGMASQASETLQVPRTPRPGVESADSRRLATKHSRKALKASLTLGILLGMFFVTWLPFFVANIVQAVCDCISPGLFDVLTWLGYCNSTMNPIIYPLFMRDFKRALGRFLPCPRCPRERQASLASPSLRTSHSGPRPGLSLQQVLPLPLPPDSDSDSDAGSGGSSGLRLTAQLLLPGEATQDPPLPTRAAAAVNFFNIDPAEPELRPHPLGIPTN

[5] = target: C-X-C chemokine receptor type 4 (Homo sapiens) (UniProt P61073); assay: Binding affinity towards CXCR4 receptor
C-X-C chemokine receptor type 4 (Homo sapiens), sequence (P61073 whole entry): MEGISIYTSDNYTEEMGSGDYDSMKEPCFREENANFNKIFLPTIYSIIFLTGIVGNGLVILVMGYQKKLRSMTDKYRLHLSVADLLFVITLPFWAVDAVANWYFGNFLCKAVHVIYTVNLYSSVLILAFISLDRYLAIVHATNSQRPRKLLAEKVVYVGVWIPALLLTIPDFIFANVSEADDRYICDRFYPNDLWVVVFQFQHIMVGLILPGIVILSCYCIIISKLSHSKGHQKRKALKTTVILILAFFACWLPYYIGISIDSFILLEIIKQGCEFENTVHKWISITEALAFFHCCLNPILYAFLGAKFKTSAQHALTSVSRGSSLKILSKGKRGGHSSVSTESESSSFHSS

[6] = target: C-C chemokine receptor type 2 (Homo sapiens) (UniProt P41597); assay: Binding affinity towards CCR2 receptor
C-C chemokine receptor type 2 (Homo sapiens), sequence (P41597 whole entry, looked up): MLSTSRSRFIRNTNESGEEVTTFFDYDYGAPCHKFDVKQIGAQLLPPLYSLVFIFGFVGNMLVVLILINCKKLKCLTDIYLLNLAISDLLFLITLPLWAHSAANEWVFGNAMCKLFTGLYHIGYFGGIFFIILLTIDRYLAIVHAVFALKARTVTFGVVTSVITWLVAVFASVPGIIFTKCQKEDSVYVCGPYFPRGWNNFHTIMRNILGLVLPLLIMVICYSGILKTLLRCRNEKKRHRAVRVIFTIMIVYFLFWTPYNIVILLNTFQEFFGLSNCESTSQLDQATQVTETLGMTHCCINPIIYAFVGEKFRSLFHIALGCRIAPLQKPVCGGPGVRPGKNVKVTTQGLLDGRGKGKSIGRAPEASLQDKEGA

[7] = target: T2, C-C chemokine receptor type 3 (Homo sapiens) (UniProt P51677); assay: Binding affinity towards CCR3 receptor
T2 sequence (whole entry): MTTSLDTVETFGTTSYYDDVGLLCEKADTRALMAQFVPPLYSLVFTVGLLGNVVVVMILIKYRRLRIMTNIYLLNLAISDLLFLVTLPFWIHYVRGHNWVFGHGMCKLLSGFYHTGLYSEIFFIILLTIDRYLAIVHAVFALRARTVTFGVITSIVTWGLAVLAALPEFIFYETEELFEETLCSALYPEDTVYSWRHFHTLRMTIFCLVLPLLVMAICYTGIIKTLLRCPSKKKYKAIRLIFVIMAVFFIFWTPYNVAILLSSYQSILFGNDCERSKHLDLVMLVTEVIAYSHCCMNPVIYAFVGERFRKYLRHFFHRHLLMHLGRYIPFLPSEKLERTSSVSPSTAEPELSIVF

[8] = target: T3, C-C chemokine receptor type 1 (Homo sapiens) (UniProt P32246); assay: Binding affinity towards CCR1 receptor
T3 sequence (whole entry): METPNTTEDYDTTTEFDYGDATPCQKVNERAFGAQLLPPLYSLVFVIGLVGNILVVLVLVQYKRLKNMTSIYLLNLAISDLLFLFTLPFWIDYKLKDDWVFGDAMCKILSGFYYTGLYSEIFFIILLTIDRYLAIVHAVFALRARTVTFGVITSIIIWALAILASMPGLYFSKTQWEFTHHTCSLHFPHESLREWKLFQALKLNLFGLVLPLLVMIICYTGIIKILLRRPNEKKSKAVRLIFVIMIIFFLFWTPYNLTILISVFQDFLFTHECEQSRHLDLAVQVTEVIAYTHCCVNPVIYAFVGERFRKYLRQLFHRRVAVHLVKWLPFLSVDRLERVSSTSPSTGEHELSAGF

[9] = target: C-C chemokine receptor type 5 (Homo sapiens) (UniProt P51681); assay: Binding affinity towards CCR5 receptor
C-C chemokine receptor type 5 (Homo sapiens), sequence (P51681 whole entry, looked up): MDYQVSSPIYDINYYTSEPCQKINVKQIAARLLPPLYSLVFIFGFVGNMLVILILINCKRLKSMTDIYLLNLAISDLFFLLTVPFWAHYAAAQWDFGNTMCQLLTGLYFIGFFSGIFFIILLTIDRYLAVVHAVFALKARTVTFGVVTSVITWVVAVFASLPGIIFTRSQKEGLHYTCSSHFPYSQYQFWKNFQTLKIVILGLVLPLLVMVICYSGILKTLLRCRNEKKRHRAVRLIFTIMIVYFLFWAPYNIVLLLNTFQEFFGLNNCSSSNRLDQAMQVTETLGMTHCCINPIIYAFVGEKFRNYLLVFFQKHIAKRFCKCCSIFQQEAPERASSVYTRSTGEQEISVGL

[10] = target: T4, C-X-C chemokine receptor type 3 (Homo sapiens) (UniProt P49682); assay: Binding affinity towards CXCR3 receptor
T4 sequence (whole entry): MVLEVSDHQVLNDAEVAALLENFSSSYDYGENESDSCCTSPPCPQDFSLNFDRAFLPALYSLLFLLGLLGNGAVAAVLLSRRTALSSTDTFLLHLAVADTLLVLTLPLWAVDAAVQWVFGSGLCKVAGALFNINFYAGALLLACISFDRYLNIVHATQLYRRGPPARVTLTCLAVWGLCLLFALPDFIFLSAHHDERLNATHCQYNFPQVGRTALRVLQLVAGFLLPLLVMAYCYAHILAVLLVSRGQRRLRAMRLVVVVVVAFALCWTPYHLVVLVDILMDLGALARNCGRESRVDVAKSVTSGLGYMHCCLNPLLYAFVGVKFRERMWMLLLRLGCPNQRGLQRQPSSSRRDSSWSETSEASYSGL

[11] = target: T5, Neuropeptide Y receptor type 1 (Homo sapiens) (UniProt P25929); assay: Binding affinity towards NPY1 receptor
T5 sequence (whole entry): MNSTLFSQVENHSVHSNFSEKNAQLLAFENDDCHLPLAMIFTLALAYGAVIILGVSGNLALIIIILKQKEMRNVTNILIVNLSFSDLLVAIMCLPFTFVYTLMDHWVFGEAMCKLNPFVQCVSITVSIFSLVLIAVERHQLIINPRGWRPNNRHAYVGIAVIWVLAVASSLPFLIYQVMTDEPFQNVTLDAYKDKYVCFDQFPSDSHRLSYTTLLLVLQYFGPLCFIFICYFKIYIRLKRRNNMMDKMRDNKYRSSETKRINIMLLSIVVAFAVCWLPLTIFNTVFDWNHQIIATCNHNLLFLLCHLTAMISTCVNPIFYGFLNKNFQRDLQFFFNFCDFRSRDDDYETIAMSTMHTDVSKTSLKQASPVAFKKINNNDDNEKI

[12] = target: T6, Neuropeptide Y receptor type 5 (Homo sapiens) (UniProt Q15761); assay: Binding affinity towards NPY5 receptor
T6 sequence (whole entry): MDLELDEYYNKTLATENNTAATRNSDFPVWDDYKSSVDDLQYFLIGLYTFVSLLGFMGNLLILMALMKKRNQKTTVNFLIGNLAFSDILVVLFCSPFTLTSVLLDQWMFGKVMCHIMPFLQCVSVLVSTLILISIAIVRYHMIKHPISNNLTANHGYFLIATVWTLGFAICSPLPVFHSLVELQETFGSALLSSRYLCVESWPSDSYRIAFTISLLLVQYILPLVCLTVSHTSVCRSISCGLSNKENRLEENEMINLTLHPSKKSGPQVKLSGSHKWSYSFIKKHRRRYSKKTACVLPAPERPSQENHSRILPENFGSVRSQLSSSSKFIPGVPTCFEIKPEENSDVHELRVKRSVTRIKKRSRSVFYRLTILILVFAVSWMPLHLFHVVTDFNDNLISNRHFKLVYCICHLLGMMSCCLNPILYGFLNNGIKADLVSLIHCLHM

[13] = target: T7, Neuromedin-K receptor (Homo sapiens) (UniProt P29371); assay: Binding affinity towards NK3 receptor
T7 sequence (whole entry): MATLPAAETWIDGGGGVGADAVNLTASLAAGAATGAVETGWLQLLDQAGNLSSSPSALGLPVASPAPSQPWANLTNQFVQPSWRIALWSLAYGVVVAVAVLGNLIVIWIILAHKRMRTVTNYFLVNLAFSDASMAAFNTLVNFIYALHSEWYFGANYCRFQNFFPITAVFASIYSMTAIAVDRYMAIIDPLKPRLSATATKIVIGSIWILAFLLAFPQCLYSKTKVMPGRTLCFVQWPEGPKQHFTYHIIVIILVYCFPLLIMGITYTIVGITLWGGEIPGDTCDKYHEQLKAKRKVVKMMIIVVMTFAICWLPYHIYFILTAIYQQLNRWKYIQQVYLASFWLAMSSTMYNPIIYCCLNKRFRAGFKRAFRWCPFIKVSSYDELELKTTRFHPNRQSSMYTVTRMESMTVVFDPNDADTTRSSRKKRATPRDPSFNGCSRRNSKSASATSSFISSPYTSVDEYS

[14] = target: Substance-P receptor (Homo sapiens) (UniProt P25103); assay: Binding affinity towards human NK1 receptor
Substance-P receptor (Homo sapiens), sequence (P25103 whole entry): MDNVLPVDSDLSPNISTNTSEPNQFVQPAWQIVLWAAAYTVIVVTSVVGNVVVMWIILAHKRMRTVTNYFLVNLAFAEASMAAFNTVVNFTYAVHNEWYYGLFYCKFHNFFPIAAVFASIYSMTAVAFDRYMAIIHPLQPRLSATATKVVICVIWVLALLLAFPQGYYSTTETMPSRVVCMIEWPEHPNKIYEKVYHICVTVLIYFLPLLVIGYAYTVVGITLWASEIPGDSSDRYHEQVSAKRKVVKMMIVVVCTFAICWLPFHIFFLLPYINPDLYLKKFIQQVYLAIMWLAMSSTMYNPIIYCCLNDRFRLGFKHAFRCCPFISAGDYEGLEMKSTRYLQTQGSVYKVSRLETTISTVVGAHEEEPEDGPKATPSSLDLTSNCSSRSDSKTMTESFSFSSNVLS

[15] = target: T8, Substance-K receptor (Homo sapiens) (UniProt P21452); assay: Binding affinity towards NK2 receptor
T8 sequence (whole entry): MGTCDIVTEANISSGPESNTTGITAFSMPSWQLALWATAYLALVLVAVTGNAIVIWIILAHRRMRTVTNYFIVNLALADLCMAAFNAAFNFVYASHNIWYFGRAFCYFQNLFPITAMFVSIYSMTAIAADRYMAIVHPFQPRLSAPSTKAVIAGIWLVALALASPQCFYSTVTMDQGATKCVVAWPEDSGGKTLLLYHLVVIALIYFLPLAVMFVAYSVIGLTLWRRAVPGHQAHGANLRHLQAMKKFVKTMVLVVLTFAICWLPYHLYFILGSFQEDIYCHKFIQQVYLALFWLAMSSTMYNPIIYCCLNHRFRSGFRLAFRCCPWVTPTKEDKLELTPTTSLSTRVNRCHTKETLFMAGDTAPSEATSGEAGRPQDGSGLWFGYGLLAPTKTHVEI

[16] = target: 5-hydroxytryptamine receptor 2A (Homo sapiens) (UniProt P28223); assay: Binding affinity towards 5-hydroxytryptamine 2A receptor
5-hydroxytryptamine receptor 2A (Homo sapiens), sequence (P28223 whole entry): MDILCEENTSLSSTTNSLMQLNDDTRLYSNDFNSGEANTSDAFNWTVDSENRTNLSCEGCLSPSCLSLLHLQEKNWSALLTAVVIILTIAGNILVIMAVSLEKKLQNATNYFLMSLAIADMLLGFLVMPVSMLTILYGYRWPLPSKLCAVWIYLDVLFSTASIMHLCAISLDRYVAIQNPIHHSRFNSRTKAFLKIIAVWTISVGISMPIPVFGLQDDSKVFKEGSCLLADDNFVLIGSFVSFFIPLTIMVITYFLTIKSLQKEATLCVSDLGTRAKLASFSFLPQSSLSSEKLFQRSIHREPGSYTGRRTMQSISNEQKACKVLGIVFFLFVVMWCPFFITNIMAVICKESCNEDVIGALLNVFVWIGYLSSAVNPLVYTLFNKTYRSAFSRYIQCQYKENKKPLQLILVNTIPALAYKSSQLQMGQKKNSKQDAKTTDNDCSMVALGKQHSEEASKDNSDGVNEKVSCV

[17] = target: T9, 5-hydroxytryptamine receptor 2C (Homo sapiens) (UniProt P28335); assay: Binding affinity towards 5-hydroxytryptamine 2C receptor
T9 sequence (whole entry): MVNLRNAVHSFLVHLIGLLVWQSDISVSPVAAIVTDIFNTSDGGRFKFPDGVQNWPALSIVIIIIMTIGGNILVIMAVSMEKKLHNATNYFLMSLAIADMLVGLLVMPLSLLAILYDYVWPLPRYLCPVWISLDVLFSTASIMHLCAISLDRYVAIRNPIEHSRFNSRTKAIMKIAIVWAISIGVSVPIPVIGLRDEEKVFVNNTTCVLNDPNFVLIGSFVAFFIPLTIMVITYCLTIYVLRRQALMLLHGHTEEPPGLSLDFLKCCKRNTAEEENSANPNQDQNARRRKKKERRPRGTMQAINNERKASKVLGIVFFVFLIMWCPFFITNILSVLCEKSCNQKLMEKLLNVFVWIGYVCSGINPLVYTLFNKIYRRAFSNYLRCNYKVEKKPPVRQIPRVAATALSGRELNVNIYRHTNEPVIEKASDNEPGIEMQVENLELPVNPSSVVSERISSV

[18] = target: T10, Gonadotropin-releasing hormone receptor (Homo sapiens) (UniProt P30968); assay: Binding affinity towards GnRH receptor
T10 sequence (whole entry): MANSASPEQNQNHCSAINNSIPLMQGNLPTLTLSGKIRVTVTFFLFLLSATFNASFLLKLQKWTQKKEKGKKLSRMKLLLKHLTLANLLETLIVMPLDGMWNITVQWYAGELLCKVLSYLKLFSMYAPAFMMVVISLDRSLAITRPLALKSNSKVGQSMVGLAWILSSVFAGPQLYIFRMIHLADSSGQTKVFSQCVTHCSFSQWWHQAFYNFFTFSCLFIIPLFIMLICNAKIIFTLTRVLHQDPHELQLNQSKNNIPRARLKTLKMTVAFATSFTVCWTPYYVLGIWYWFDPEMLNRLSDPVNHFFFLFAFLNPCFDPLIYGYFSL

[19] = target: Melanocortin receptor 4 (Homo sapiens) (UniProt P32245); assay: Binding affinity towards MCR-4 receptor
Melanocortin receptor 4 (Homo sapiens), sequence (P32245 whole entry): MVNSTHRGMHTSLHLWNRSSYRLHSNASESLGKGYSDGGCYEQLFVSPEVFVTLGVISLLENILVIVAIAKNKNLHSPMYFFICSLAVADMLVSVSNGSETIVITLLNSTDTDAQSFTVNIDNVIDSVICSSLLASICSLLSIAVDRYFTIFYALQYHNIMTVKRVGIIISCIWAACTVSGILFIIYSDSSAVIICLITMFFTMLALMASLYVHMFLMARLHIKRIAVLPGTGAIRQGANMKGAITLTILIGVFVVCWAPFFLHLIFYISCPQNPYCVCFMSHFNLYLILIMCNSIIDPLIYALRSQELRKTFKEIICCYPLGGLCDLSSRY

CN(C)CCCc1c(-c2cccc(Br)c2)[nH]c2ccccc12
Activity [1]: > 1 µM
Activity [2]: 300 nM
Activity [3]: > 1 µM
Activity [4]: 0.7 nM

Brc1ccc(-c2[nH]c3ccc4ccccc4c3c2CCCNC2CCC(c3ccccc3)C2)cc1 (stereo not drawn)
Activity [5]: 1520 nM
Activity [6]: > 10 µM
Activity [7]: 920 nM
Activity [8]: > 10 µM
Activity [9]: 1190 nM
Activity [10]: > 10 µM

CC(NCCCc1c(-c2cccc(Br)c2)[nH]c2ccccc12)c1ccc(O)cc1 (stereo not drawn)
Activity [11]: > 10 µM
Activity [12]: 0.8 nM

COc1ccccc1N1CCN(C(=O)CCc2c(-c3ccc(Br)cc3)[nH]c3ccc(C)cc23)CC1
Activity [13]: > 10 µM
Activity [14]: 0.8 nM
Activity [15]: > 10 µM

Brc1ccc(-c2[nH]c3cccc(-c4ccccc4)c3c2CCCN2CCCC2)cc1
Activity [1]: > 1 µM
Activity [16]: 10 nM
Activity [17]: 60 nM
Activity [2]: > 1000 nM
Activity [3]: > 1 µM
Activity [4]: 635 nM

CCOC(=O)C(C)(C)c1ccc2[nH]c(-c3cc(C)cc(C)c3)c(CCCN3CCC(O)(c4ccccc4)CC3)c2c1
Activity [18]: 52 nM

Cc1ccc2[nH]c(-c3ccc(Br)cc3)c(CCCCCNC3CCCCC3)c2c1
Activity [19]: 612 nM

Reference: ChEMBL document CHEMBL1135101, “Combinatorial synthesis of 3-(amidoalkyl) and 3-(aminoalkyl)-2-arylindole derivatives: discovery of potent ligands for a variety of G-protein coupled receptors” (Bioorg Med Chem Lett, 2002)
